For series [1], the target named is Metabotropic glutamate receptor 5 (Homo sapiens, UniProt P41594). In words: Antagonist activity at human mGluR5. It counts as functional.
Series [2] has as its target Metabotropic glutamate receptor 1 (Homo sapiens, UniProt Q13255). In words: Antagonist activity at human mGluR1. Type of series: functional.
The nature of series [3]: AUC in rat at 10 mg/kg, po by LC/API-MS/MS. It counts as ADME, organism-based. More on the design: dose 10 mg/kg, route oral. Conditions: plasma.
Another series can be described thus: in vivo. Conditions: rat, brain/plasma, po, 10 mg/kg.
Series [4] in a line: Drug level in rat brain at 10 mg/kg, po after 6 hrs. It counts as ADME, organism-based. Also on record: dose 10 mg/kg, route oral. Conditions: read-out: Drug uptake.
Series [5] has as its target Metabotropic glutamate receptor 1 (Rattus norvegicus, UniProt P23385). Kind of series: Antagonist activity at rat mGluR1. Type of series: functional.
In series [6] the target is Metabotropic glutamate receptor 1 (Rattus norvegicus). In words: Antagonist activity at rat mGluR1.

The record followed here is ChEMBL document CHEMBL1156221, “A-ring modifications on the triazafluorenone core structure and their mGluR1 antagonist properties” (Bioorg Med Chem Lett, 2010).

Chain of Metabotropic glutamate receptor 5 (P41594 whole entry): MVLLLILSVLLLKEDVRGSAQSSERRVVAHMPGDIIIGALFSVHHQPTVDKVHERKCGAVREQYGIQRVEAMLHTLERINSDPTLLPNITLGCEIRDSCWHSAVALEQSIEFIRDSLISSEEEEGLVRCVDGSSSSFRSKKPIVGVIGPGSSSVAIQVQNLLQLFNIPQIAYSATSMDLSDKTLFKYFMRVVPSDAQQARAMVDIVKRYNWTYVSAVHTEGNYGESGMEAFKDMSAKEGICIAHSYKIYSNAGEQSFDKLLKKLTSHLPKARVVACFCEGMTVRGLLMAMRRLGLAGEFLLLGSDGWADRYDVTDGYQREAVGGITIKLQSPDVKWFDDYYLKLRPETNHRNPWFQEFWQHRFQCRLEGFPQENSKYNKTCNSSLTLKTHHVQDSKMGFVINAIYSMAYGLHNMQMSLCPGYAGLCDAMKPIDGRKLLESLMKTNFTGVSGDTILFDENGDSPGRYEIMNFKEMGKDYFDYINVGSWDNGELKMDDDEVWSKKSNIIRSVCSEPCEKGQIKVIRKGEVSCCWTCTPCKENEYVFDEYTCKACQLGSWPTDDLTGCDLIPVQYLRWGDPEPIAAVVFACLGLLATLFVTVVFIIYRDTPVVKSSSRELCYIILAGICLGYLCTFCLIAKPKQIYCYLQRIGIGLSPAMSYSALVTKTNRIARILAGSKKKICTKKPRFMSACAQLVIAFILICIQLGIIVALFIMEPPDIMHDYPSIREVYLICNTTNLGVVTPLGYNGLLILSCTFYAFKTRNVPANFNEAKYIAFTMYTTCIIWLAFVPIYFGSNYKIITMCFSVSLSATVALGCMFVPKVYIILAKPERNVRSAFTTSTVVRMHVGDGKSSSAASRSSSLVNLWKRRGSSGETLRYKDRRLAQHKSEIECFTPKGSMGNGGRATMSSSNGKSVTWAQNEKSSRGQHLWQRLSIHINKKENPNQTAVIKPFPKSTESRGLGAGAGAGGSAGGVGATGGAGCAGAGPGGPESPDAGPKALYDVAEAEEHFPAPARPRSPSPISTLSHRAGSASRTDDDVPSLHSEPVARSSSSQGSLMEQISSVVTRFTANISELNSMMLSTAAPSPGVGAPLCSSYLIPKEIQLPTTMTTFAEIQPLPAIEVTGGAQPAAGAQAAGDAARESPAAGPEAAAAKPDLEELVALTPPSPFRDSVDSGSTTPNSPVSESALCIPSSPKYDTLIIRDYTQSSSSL
Chain of Metabotropic glutamate receptor 1 (Homo sapiens, UniProt Q13255) (Q13255 whole entry): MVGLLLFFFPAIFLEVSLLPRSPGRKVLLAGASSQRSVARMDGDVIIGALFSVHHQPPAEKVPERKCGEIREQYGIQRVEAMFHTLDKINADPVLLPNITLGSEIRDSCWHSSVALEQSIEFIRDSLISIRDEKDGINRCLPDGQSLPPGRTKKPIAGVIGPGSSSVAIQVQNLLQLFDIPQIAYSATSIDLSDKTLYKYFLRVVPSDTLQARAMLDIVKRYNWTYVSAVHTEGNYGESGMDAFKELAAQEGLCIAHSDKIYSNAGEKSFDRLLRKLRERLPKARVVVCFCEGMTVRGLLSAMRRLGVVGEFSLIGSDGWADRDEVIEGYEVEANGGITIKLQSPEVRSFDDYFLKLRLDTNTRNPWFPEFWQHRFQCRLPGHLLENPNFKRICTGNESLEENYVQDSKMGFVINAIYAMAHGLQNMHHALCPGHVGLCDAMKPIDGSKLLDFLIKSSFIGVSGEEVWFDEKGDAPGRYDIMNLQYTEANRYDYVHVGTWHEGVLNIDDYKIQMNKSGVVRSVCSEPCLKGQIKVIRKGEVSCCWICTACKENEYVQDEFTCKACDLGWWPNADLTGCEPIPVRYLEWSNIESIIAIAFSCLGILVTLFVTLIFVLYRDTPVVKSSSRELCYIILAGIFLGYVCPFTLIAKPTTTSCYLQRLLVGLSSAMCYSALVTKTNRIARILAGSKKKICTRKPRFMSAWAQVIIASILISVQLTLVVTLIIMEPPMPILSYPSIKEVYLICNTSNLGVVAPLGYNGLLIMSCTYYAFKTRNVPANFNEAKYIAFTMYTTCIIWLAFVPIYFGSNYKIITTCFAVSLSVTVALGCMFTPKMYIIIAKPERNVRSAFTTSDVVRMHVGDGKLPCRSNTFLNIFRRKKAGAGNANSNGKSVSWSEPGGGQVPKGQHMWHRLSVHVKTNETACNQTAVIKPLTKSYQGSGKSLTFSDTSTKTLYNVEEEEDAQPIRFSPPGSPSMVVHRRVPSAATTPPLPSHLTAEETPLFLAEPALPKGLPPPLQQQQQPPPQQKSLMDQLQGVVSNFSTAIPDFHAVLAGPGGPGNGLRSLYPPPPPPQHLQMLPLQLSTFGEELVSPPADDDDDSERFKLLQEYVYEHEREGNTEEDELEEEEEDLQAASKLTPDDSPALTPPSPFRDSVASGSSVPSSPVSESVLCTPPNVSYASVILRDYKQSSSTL
Chain of Metabotropic glutamate receptor 1 (Rattus norvegicus, UniProt P23385) (P23385 whole entry, looked up): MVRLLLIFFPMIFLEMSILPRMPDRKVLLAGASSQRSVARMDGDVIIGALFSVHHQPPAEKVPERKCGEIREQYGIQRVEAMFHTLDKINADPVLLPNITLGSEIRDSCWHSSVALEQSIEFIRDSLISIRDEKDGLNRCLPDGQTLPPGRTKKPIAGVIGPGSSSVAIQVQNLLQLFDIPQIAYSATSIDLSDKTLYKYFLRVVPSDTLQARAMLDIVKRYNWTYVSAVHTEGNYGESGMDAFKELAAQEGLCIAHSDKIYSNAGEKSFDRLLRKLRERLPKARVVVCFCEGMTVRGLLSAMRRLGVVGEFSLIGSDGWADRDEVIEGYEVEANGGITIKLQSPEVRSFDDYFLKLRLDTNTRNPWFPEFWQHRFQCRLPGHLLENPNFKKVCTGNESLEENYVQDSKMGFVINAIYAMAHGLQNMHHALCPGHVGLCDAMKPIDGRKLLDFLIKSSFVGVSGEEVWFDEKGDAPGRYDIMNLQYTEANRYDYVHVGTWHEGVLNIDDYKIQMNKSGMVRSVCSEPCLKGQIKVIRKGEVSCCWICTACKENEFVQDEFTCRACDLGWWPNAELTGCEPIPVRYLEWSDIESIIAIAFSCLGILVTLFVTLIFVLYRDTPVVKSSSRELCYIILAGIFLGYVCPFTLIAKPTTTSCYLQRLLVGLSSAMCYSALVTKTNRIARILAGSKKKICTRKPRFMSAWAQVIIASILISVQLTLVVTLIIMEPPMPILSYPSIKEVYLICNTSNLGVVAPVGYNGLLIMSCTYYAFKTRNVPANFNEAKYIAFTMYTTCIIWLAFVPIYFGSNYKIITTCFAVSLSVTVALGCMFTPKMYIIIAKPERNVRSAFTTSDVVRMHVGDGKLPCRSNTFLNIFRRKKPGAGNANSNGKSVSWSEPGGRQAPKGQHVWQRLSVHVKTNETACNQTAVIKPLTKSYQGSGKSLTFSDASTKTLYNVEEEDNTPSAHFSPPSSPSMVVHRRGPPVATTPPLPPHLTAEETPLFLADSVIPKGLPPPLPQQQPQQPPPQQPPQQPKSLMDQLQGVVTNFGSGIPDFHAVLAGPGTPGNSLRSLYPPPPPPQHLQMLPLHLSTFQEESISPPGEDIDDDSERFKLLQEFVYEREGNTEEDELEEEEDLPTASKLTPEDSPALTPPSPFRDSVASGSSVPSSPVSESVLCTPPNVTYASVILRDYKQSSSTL
Description for in vivo: Ratio of drug level in brain to plasma in rat at 10 mg/kg, po

One may read the IC50 as the concentration needed to halve the response being measured. Lower therefore signals greater potency. As for `Cc1nc(N)c2c(n1)sc1c(=O)n(-c3ccccc3)cnc12`, the IC50 in series [1] was greater than 3000 nM; in series [2], 16 nM.
On the same counts, the results for `COc1ccc(-n2cnc3c(sc4nc(C)nc(N)c43)c2=O)cc1` are greater than 3000 nM and 188 nM.
For `Cc1nc(N)c2c(n1)sc1c(=O)n(-c3ccc(F)cc3)cnc12`, the IC50 is greater than 3000 nM in series [1] and 68 nM in series [2].
In the case of `Cc1nc(N)c2c(n1)sc1c(=O)n(-c3ccc(Cl)cc3)cnc12`, the IC50 was greater than 3000 nM in series [1] and 11 nM in series [2].
Broadly, the AUC is concentration integrated over time. The Kp is tissue or fluid exposure divided by exposure in the circulation. As to `Cc1ccc(-n2cnc3c(sc4nc(N)nc(N)c43)c2=O)cc1`, in series [3], the AUC was 965 ng·h/mL. In “in vivo”, this compound gave a partition ratio (Kp) of 0.9. This compound also came in with an IC50 in series [1] greater than 3000 nM. For the same compound, the concentration at 6 h in series [4] worked out at 100 ng/g.
`CNc1nc(N)c2c(n1)sc1c(=O)n(-c3ccc(C)cc3)cnc12`: the IC50 in series [1] was greater than 3000 nM; in series [2], greater than 1000 nM.
Regarding `Cc1ccc(-n2cnc3c(sc4nc(-n5cccc5)nc(N)c43)c2=O)cc1`, the IC50 in series [1] was greater than 3000 nM; in series [2], greater than 1000 nM.
In the case of `Cc1ccc(-n2cnc3c(sc4[nH]c(=O)nc(N)c43)c2=O)cc1`, the IC50 in series [1] was greater than 3000 nM; in series [2], greater than 1000 nM.
Turning to `Cc1ccc(-n2cnc3c(sc4nc(S)nc(N)c43)c2=O)cc1`, the results for the IC50 in series [1] and in series [2] were greater than 3000 nM and 3.1 nM, respectively.
By Ki is commonly meant a measure of affinity in units of concentration, obtained from inhibition or displacement. Low values mean tighter binding, high ones weaker binding. Turning to `Cc1ccc(-n2cnc3c(sc4nc(C)nc(N)c43)c2=O)cc1`, the AUC in series [3] was 2110 ng·h/mL. Moreover, the Ki in series [5] and in series [6] was 115 nM in each case. Moreover, the Kp in “in vivo” was determined as 0.2. The half-inhibitory concentration (IC50) in series [1] is greater than 3000 nM; in series [2], 27 nM. Also, in series [4], the concentration at 6 h was 29 ng/g.
With `Cc1ccc(-n2cnc3c(sc4nc(C(F)(F)F)nc(N)c43)c2=O)cc1`, the IC50 is greater than 3000 nM in series [1] and greater than 1000 nM in series [2].
With `Cc1ccc(-n2cnc3c(sc4nc(C5CC5)nc(N)c43)c2=O)cc1`, the IC50 is greater than 3000 nM in series [1] and 326 nM in series [2].
In turn, `COc1ccc(-n2cnc3c(sc4nccc(N(C)C)c43)c2=O)cc1` showed a half-inhibitory concentration (IC50) in series [1] greater than 3000 nM.
